“Also recorded” adds a separate entry of the source. Non-standard residues stand in square brackets, D forms with d. Residues, ends and D or L forms follow the SMILES beside them. dPhe(4-NH2) = Nc1ccc(C[C@@H](N)C(=O)O)cc1; dPhe(4-Cl) = N[C@H](Cc1ccc(Cl)cc1)C(=O)O; Phe(4-NH2) = Nc1ccc(C[C@H](N)C(=O)O)cc1; d2Nal = N[C@H](Cc1ccc2ccccc2c1)C(=O)O; Lys(iPr) = CC(C)NCCCC[C@H](N)C(=O)O; d3Pal = N[C@H](Cc1cccnc1)C(=O)O
Assay: Gelation of acyline in pH 6.8 buffer with sodium caprate and Tween 80 (filtration, HPLC)
Format: physicochemical
Protocol: Different concentrations of acyline composition are prepared by adding acyline to pH 6.8 buffer solution either at room temperature or 37° C. All acyline solutions contain 0.6 mg/mL sodium caprate (sodium caprate is referred as C10 in the figures). All samples are centrifuged and filtered prior to analysis. Samples are analyzed by reverse phase HPLC with UV detection. 10 mg acyline is transferred into […] volumetric flask. A pH 6.8 buffer solution is preheated to 37° C. Then, 100 mL pre-heated buffer solution and 0.6 mg/mL sodium caprate is added to the flask to prepare a 0.1 mg/mL acyline sample. In a similar manner, Tween 80 is added to prepare a 0.1 mg/mL acyline solution with 1% Tween 80. Samples are shaken in a temperature controlled water bath at 37° C. 5 mL samples are taken at 1, 5, 10, 15, 20, 30 and 120 minutes after mixing acyline with the buffer solution. Samples are filtered immediately through 0.45 μm filters and the first 3 mL is discarded. Filtered samples are analyzed, undiluted, by reverse phase HPLC with UV detection. All samples are prepared in duplicate and the concentration was obtained for the analysis from the mean of the duplicates. The result of comparison of 1% and 0% Tween 80 at 0.1 mg/mL acyline sample is graphically recorded in FIG. 5. […] A similar experimental procedure as Example 4 is used to prepare acyline sample for example 5. The result of comparison of 5 mg/mL, 1.0 mg/mL, 0.1 mg/mL, and 0.1% Tween in phosphate buffer containing 0.6 mg/mL of sodium caprate and 0.1 mg/mL acyline is graphically recorded in FIG. 6. […] A similar experimental procedure as Example 4 is used to prepare acyline sample for example 6. The result of comparison of 1% and 1 mg/mL Tween 80 in 0.1 and 0.01 mg/mL acyline sample is graphically recorded in FIG. 7. […] A similar experimental procedure as Example 4 is used to prepare acyline sample for example 7. The result of comparison of 0.01 mg/mL acyline samples having 0.1%, 0.5% and 1% Tween 80 is graphically recorded in FIG. 8.

- gelation of acyline (0.01 mg/mL acyline, 0.6 mg/mL sodium caprate, 1% Tween 80): significantly reduces the gelation
- gelation of acyline (0.1 mg/mL acyline, 37° C., 0.6 mg/mL sodium caprate alone (0% Tween 80)): insufficient to reduce the gelation
Structure (SMILES): CC(=O)Nc1ccc(C[C@H](NC(=O)[C@H](CO)NC(=O)[C@@H](Cc2cccnc2)NC(=O)[C@@H](Cc2ccc(Cl)cc2)NC(=O)[C@@H](Cc2ccc3ccccc3c2)NC(C)=O)C(=O)N[C@H](Cc2ccc(NC(C)=O)cc2)C(=O)N[C@@H](CC(C)C)C(=O)N[C@@H](CCCCNC(C)C)C(=O)N2CCC[C@H]2C(=O)N[C@H](C)C(N)=O)cc1 [acyline, Ac-D2Nal-D4Cpa-D3Pal-Ser4Aph(Ac)-D4Aph(Ac)-Leu-ILys-Pro-DAla-NH2] (Ac-[d2Nal][dPhe(4-Cl)][d3Pal]S[Phe(4-NH2)](Ac)[dPhe(4-NH2)](Ac)L[Lys(iPr)]P[dA]-NH2)
- gelation of acyline (0.1 mg/mL acyline, 0.6 mg/mL sodium caprate, 1% Tween 80): successfully reduces the gelation; also recorded: completely inhibit the gelation

— US20090280169A1, “Compositions of peptides and processes of preparation thereof” (Merrion Research III Limited, priority 2008, published 2009)
